# Source: PubChem BioAssay (NCI)
#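 A five-concentration, 48-hour dose response in 96-well plates underlies each endpoint, interpolated linearly between surrounding concentrations. TGI is the concentration that stops growth completely.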
# Columns and labels:
# Experiment in all cases: inhibition of tumour cell growth, NCI panel, 48 h
# [1] = system: OVCAR-4 ovarian
# [2] = system: SNB-75 CNS
# [3] = system: CCRF-CEM leukemia
# [4] = system: LOX IMVI melanoma
# [5] = system: MDA-MB-231 breast
# [6] = system: MDA-N
# [7] = system: SF-539 CNS
# [8] = system: OVCAR-3 ovarian
# [9] = system: HCC-2998 colon
# [10] = system: SF-295 CNS
# [11] = system: BT-549 breast
# [12] = system: HS 578T breast
# [13] = system: CAKI-1 renal
# [14] = system: HL-60(TB) leukemia
# [15] = system: DU-145 prostate
# [16] = system: SN12C renal
# [17] = system: MALME-3M melanoma
# [18] = system: HT29 colon
# [19] = system: ACHN renal
# [20] = system: DMS 273 small cell lung
SMILES,TGI [1],TGI [2],TGI [3],TGI [4],TGI [5],TGI [6],TGI [7],TGI [8],TGI [9],TGI [10],TGI [11],TGI [12],TGI [13],TGI [14],TGI [15],TGI [16],TGI [17],TGI [18],TGI [19],TGI [20]
Clc1ccc(CCNC2(c3cc4ccccc4s3)CCCCC2)cc1Cl,> 100 µM,49.3 µM,31 µM,35.6 µM,43.2 µM,> 100 µM,46.7 µM,49.2 µM,22.1 µM,84.3 µM,84.5 µM,> 100 µM,> 100 µM,40.9 µM,> 100 µM,> 100 µM,36.9 µM,87.1 µM,63.3 µM,–
COC1OCC(O)C(NC(=O)N(C)N=O)C1O (stereo not drawn),> 100 µM,> 100 µM,> 100 µM,> 100 µM,–,–,> 100 µM,> 100 µM,> 100 µM,> 100 µM,–,–,> 100 µM,–,–,> 100 µM,> 100 µM,> 100 µM,–,> 100 µM
CCC12CCCN(Cc3ccccc3)C1c1c(n(C)c3ccccc13)C(CO)C2 (stereo not drawn),–,–,> 257 µM,82 µM,–,–,73.9 µM,90.7 µM,121 µM,64.7 µM,–,–,> 257 µM,169 µM,–,81.2 µM,84.6 µM,72.2 µM,–,89.7 µM
N[C@H]1c2c(Br)sc(Br)c2C(=O)[C@H]1O,27 µM,79.7 µM,6.63 µM,10.6 µM,36.1 µM,30.1 µM,36 µM,> 61.9 µM,27.5 µM,51.1 µM,16.5 µM,> 87.8 µM,16.7 µM,10.5 µM,39.4 µM,3.63 µM,29.6 µM,30.8 µM,> 64.6 µM,–
Cc1ccc(S(=O)(=O)N2CCC[C@@H]2C(=O)O[C@@H]2CCC3CC=CC32)cc1 (stereo partly drawn),> 100 µM,> 100 µM,> 100 µM,38.9 µM,> 100 µM,78.6 µM,> 100 µM,38.8 µM,> 100 µM,> 100 µM,44.3 µM,87.5 µM,–,64.2 µM,> 100 µM,> 100 µM,90 µM,> 100 µM,> 100 µM,–
CCOC(=O)c1nc2ccc(OC)cc2c2c1Cc1ccccc1-2,> 100 µM,> 100 µM,–,> 100 µM,–,–,> 100 µM,> 100 µM,> 100 µM,> 100 µM,–,–,> 100 µM,–,–,> 100 µM,> 100 µM,> 100 µM,> 100 µM,> 100 µM
COc1ccc(-n2c(SC(CN3CCOCC3)CN3CCCC3=O)nc3ccccc3c2=O)cc1 (stereo not drawn),> 100 µM,> 100 µM,> 100 µM,–,> 100 µM,> 100 µM,> 100 µM,> 100 µM,> 100 µM,> 100 µM,> 100 µM,> 100 µM,> 100 µM,> 100 µM,> 100 µM,> 100 µM,> 100 µM,> 100 µM,> 100 µM,–
COc1ccc2c(c1)CC[C@@H]1C2CC[C@]2(C)C(=O)N(CCN(C)C)C(=O)CC12 (stereo partly drawn),> 100 µM,> 100 µM,> 100 µM,–,> 100 µM,> 100 µM,> 100 µM,> 100 µM,> 100 µM,> 100 µM,> 100 µM,> 100 µM,> 100 µM,> 100 µM,> 100 µM,> 100 µM,> 100 µM,> 100 µM,> 100 µM,–
CC1(C)OC[C@H](C(=N)OCc2ccccc2)O1,> 100 µM,> 100 µM,> 100 µM,–,–,–,> 100 µM,> 100 µM,> 100 µM,> 100 µM,–,–,> 100 µM,> 100 µM,–,> 100 µM,> 100 µM,> 100 µM,> 100 µM,> 100 µM
CCC(=O)Nc1cccc(N=Cc2ccc(OC(=O)/C=C\c3ccccc3)cc2)c1,> 75 µM,> 75 µM,> 75 µM,> 75 µM,> 75 µM,> 75 µM,> 75 µM,> 75 µM,> 75 µM,> 75 µM,> 75 µM,> 75 µM,> 75 µM,> 75 µM,> 75 µM,> 75 µM,> 75 µM,> 75 µM,> 75 µM,–
O=C1CC(/C=C/c2ccco2)=C(O)C1=O,27.3 µM,32.9 µM,8.68 µM,25.4 µM,35.2 µM,29.7 µM,31.1 µM,27.1 µM,31.9 µM,40.9 µM,23.6 µM,87.9 µM,34.6 µM,57.1 µM,32.5 µM,27.7 µM,23.9 µM,30.4 µM,34.3 µM,–
CCCCCCSc1nc(N)nc2nc[nH]c12,> 100 µM,71.7 µM,> 100 µM,> 100 µM,–,–,> 100 µM,> 100 µM,> 100 µM,> 100 µM,–,–,–,60.4 µM,–,> 100 µM,> 100 µM,> 100 µM,–,> 100 µM
CC(C)(C)NC1=NC(C(F)(F)F)(C(F)(F)F)NC(=O)N1,> 100 µM,> 100 µM,> 100 µM,> 100 µM,> 100 µM,> 100 µM,> 100 µM,> 100 µM,79 µM,> 100 µM,> 100 µM,> 100 µM,> 100 µM,59.6 µM,> 100 µM,> 100 µM,> 100 µM,> 100 µM,> 100 µM,–
CC(C)OP(=S)(NC(=S)c1ccccc1)OC(C)C,> 100 µM,> 100 µM,> 100 µM,> 100 µM,–,–,> 100 µM,> 100 µM,> 100 µM,> 100 µM,–,–,> 100 µM,–,–,> 100 µM,> 100 µM,> 100 µM,> 100 µM,> 100 µM
